{"source": "paper PMC7366380", "about": "“Discovery of a Potent and Selective Covalent Inhibitor and Activity-Based Probe for the Deubiquitylating Enzyme UCHL1, with Antifibrotic Activity” (Journal of the American Chemical Society, 2020)", "assay_in_all_cases": "In-cell proteome-wide competitive ABPP, HEK293: other DUBs and proteins", "key": {"[1]": {"target": "DUBs and other proteins in HEK293 cells (Homo sapiens, UniProt O15372)", "sequence (O15372 whole entry)": "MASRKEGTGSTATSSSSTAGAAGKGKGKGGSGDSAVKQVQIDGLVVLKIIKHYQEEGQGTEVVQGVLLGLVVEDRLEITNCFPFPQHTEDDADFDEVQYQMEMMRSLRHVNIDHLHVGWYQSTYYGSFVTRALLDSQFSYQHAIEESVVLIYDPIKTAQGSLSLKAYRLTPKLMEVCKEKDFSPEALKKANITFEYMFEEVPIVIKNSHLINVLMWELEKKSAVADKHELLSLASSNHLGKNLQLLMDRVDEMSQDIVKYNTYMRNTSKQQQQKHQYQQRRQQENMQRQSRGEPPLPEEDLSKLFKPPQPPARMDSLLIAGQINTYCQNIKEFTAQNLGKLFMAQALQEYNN", "conditions": "for Log2 reporter intensity values, EIF3H: TMT replicates; for Log2 reporter intensity values: EIF3H: competition with ABP 2, DMSO substract (FC); for Log2 reporter intensity values: EIF3H / Log2 reporter intensity values: replicates A-C; for Log2 t-test Difference / Log2 reporter intensity values: EIF3H"}, "[2]": {"target": "DUBs and other proteins in HEK293 cells (Homo sapiens, UniProt Q93008)", "sequence (Q93008 whole entry)": "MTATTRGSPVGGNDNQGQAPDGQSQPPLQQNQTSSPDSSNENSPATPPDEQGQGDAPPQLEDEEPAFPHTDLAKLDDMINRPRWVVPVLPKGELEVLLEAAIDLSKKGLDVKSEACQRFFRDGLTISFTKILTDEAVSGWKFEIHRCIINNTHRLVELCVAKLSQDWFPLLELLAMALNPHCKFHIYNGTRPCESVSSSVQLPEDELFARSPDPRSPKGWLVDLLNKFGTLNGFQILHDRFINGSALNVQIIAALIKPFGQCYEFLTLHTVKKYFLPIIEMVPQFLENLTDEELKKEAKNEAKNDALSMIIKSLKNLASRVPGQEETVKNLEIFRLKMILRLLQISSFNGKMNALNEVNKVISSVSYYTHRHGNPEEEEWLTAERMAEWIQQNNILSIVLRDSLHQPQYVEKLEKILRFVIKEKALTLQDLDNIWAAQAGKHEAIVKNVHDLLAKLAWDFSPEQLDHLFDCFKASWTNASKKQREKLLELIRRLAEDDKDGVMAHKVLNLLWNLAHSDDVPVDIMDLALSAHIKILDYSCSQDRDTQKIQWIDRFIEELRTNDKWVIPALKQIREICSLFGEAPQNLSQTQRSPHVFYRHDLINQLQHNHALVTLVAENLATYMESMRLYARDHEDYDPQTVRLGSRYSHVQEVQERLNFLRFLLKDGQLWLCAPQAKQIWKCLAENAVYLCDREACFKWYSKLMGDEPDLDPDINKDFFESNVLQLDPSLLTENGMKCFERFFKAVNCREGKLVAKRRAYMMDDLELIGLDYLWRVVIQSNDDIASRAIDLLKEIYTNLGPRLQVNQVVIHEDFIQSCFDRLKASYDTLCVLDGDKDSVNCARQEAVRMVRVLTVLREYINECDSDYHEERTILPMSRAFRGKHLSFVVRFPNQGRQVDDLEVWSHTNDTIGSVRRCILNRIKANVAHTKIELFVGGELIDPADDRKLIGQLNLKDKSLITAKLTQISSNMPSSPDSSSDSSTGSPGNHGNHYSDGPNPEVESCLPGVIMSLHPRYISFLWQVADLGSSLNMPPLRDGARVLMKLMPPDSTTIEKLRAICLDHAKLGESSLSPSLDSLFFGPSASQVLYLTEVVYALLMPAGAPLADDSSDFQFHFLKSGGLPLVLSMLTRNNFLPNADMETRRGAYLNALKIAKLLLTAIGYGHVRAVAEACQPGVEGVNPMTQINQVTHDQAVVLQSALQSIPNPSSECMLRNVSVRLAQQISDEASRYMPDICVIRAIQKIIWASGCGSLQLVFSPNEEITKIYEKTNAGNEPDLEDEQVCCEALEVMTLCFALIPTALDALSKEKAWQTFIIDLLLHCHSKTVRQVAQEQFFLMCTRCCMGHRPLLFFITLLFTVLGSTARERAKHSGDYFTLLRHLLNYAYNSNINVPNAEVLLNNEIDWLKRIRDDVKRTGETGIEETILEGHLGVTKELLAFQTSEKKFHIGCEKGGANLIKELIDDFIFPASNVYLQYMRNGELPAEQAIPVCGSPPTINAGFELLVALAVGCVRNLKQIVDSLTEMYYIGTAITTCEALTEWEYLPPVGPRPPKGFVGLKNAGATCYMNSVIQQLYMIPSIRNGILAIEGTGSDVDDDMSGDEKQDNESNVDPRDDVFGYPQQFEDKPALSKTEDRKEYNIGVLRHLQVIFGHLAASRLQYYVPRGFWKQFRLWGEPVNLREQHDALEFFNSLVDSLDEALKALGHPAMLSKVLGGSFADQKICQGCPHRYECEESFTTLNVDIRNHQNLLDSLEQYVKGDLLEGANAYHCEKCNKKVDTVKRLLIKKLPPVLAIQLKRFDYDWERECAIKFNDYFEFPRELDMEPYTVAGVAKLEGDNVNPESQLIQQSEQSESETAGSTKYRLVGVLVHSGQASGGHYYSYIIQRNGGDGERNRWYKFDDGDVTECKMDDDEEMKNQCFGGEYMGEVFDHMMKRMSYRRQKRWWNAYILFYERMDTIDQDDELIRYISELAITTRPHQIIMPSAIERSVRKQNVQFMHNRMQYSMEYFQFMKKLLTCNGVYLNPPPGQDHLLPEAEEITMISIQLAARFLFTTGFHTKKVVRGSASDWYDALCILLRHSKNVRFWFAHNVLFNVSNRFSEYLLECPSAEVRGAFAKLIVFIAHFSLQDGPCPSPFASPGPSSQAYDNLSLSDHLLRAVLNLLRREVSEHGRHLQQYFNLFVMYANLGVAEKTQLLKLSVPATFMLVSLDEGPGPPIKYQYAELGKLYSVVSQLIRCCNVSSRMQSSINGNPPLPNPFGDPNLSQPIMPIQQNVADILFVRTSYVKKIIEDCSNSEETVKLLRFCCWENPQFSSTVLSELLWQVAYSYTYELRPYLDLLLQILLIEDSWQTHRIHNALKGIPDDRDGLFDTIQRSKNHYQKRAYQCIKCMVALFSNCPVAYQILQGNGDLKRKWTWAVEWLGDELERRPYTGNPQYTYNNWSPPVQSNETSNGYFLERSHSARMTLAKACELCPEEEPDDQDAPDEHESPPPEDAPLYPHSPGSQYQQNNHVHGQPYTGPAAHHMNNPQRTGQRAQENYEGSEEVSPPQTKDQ", "conditions": "replicates A-C; for Log2 reporter intensity values: USP9X;USP9Y: competition with ABP 2, DMSO substract (FC); for Log2 reporter intensity values: USP9X;USP9Y, DMSO subtracted"}, "[3]": {"target": "T1, DUBs and other proteins in HEK293 cells (Homo sapiens, UniProt Q96K76)", "T1 sequence (Q96K76 1-1375)": "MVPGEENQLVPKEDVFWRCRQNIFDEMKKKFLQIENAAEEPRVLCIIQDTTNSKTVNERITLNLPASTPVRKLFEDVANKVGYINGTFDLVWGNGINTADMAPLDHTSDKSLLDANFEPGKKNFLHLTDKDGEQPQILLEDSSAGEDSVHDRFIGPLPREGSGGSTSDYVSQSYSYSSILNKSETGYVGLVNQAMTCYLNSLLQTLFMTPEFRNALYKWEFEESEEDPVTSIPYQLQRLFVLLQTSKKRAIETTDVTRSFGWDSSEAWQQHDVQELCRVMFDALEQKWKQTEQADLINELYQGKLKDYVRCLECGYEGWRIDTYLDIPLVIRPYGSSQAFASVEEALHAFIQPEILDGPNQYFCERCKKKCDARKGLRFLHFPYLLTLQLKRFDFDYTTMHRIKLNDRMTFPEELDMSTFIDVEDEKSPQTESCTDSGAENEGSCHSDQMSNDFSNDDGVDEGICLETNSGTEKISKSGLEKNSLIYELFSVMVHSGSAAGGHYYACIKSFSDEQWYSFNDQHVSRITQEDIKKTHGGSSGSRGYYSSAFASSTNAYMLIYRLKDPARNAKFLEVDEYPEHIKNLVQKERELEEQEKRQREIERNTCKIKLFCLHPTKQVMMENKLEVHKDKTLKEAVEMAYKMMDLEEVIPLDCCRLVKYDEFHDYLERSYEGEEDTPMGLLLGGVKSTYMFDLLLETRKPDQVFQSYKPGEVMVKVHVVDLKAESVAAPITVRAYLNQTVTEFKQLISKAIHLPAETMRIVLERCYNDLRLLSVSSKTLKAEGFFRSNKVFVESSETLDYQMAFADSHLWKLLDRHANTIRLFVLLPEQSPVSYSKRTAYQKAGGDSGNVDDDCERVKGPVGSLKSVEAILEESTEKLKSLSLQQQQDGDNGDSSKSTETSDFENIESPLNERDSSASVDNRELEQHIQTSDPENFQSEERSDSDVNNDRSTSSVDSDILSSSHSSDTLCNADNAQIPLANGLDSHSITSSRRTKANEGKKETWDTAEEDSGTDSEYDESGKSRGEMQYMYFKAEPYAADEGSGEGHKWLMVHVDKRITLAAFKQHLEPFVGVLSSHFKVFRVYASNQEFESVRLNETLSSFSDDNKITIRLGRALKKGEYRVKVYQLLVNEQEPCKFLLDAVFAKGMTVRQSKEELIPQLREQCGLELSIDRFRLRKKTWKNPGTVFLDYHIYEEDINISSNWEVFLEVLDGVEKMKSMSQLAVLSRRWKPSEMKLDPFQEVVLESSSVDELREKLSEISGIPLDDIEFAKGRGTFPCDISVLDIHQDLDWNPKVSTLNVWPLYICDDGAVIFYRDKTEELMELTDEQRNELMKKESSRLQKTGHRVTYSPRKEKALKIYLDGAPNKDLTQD", "conditions": "replicates A-C; for Log2 reporter intensity values: USP47: competition with ABP 2, DMSO substract (FC); for Log2 reporter intensity values: USP47, DMSO subtracted"}, "[4]": {"target": "T2, DUBs and other proteins in HEK293 cells (Homo sapiens, UniProt Q9Y4E8)", "T2 sequence (Q9Y4E8 1-981)": "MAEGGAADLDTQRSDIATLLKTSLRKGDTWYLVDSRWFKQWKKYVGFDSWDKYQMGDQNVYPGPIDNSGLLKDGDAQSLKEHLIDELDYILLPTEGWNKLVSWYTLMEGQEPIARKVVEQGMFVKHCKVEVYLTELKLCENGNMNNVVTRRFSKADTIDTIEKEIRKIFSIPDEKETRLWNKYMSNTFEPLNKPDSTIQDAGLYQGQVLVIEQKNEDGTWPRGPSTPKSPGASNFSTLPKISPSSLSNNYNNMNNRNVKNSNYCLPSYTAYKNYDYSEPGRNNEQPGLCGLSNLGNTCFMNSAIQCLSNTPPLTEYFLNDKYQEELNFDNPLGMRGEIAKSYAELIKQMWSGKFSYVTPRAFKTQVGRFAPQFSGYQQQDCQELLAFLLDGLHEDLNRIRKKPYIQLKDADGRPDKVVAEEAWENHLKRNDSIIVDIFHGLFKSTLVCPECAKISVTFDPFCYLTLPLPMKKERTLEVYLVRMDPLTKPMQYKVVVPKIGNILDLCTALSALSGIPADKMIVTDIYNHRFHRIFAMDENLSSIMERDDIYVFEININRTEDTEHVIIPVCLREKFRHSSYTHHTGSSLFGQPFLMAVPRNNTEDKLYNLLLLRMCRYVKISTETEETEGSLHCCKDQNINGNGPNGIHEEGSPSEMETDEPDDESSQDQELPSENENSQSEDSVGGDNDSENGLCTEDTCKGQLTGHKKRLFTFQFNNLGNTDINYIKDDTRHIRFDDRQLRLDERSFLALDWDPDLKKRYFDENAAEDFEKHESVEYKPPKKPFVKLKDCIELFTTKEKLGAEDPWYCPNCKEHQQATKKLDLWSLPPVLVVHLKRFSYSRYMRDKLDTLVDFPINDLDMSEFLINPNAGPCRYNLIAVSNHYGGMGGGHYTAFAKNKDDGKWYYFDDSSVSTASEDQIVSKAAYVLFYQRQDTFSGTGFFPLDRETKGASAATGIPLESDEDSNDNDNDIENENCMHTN", "conditions": "replicates A-C; for Log2 reporter intensity values: USP15: competition with ABP 2, DMSO substract (FC); for Log2 reporter intensity values: USP15, DMSO subtracted"}}, "note": "Values joined by “and” are separate entries in the source; they are usually repeats but may differ in a detail not shown here. Identical values can stand only once.", "data": [{"smiles": "N#CN1CCC[C@@H]1C(=O)N1CCc2c(-c3c[nH]c4ncccc34)cccc21", "note": "[Compound 3]", "values": [{"measurement": "Log2 reporter intensity values, EIF3H", "setting": "[1]; 1 μM 3 (60 min) + 20 nM ABP 2 (10 min), All values", "value": "-0.08032 and 0.01397 and -0.006379"}, {"measurement": "Log2 reporter intensity values, EIF3H", "setting": "[1]; 1 μM 3 (60 min) + 20 nM ABP 2 (10 min), DMSO subtracted", "value": "-0.1099 and -0.01562 and -0.03597"}, {"measurement": "Log2 reporter intensity values, EIF3H", "setting": "[1]; 4 μM 3 (60 min) + 20 nM ABP 2 (10 min), All values", "value": "0.0444 and 0.04115 and 0.06318"}, {"measurement": "Log2 reporter intensity values, EIF3H", "setting": "[1]; 4 μM 3 (60 min) + 20 nM ABP 2 (10 min), DMSO subtracted", "value": "0.01481 and 0.01156 and 0.03359"}, {"measurement": "Log2 reporter intensity values: EIF3H", "setting": "[1]; 3 at 1 μM", "value": "0.9266 and 0.9892 and 0.9754"}, {"measurement": "Log2 reporter intensity values: EIF3H", "setting": "[1]; 3 at 4 μM", "value": "1.01 and 1.008 and 1.024"}, {"measurement": "Log2 t-test Difference", "setting": "[1]; 3 - 1 μM", "value": -0.05018}, {"measurement": "Log2 t-test Difference", "setting": "[1]; 3 - 4 μM", "value": 0.02364}, {"measurement": "Log2 reporter intensity values", "setting": "[1]; 3_1 μM, DMSO subtracted", "value": "-0.0735 and -0.01091 and -0.02477"}, {"measurement": "Log2 reporter intensity values", "setting": "[1]; 3_4 μM, DMSO subtracted", "value": "0.01017 and 0.007903 and 0.02341"}, {"measurement": "Log2 reporter intensity values", "setting": "[1]; 3 at 1 μM, DMSO subtracted", "value": "-0.1099 and -0.01562 and -0.03597"}, {"measurement": "Log2 reporter intensity values", "setting": "[1]; 3 at 4 μM, DMSO subtracted", "value": "0.01481 and 0.01156 and 0.03359"}, {"measurement": "Log2 reporter intensity values: USP9X;USP9Y", "setting": "[2]; 3 at 1 μM", "value": "1.02 and 0.9178 and 0.9768"}, {"measurement": "Log2 reporter intensity values: USP9X;USP9Y", "setting": "[2]; 3 at 4 μM", "value": "0.9914 and 0.9828 and 0.9945"}, {"measurement": "Log2 reporter intensity values", "setting": "[2]; 3_1 μM", "value": "0.02022 and -0.08228 and -0.02322"}, {"measurement": "Log2 reporter intensity values", "setting": "[2]; 3_4 μM", "value": "-0.008621 and -0.01719 and -0.00552"}, {"measurement": "Log2 reporter intensity values", "setting": "[2]; 3 at 1 μM", "value": "0.02892 and -0.1238 and -0.03385"}, {"measurement": "Log2 reporter intensity values", "setting": "[2]; 3 at 4 μM", "value": "-0.01245 and -0.02497 and -0.007941"}, {"measurement": "Log2 reporter intensity values: USP47", "setting": "[3]; 3 at 1 μM", "value": "1.001 and 0.9758 and 1.097"}, {"measurement": "Log2 reporter intensity values: USP47", "setting": "[3]; 3 at 4 μM", "value": "0.9921 and 1.112 and 1.049"}, {"measurement": "Log2 reporter intensity values", "setting": "[3]; 3_1 μM", "value": "0.0008917 and -0.02426 and 0.09736"}, {"measurement": "Log2 reporter intensity values", "setting": "[3]; 3_4 μM", "value": "-0.008057 and 0.1123 and 0.04861"}, {"measurement": "Log2 reporter intensity values", "setting": "[3]; 3 at 1 μM", "value": "0.001442 and -0.03527 and 0.1342"}, {"measurement": "Log2 reporter intensity values", "setting": "[3]; 3 at 4 μM", "value": "-0.01151 and 0.1537 and 0.06863"}, {"measurement": "Log2 reporter intensity values: USP15", "setting": "[4]; 3 at 1 μM", "value": "1.093 and 1.008 and 1.068"}, {"measurement": "Log2 reporter intensity values: USP15", "setting": "[4]; 3 at 4 μM", "value": "1.017 and 0.9783 and 1.019"}, {"measurement": "Log2 reporter intensity values", "setting": "[4]; 3_1 μM", "value": "0.09224 and 0.007674 and 0.06804"}, {"measurement": "Log2 reporter intensity values", "setting": "[4]; 3_4 μM", "value": "0.01634 and -0.02192 and 0.0187"}, {"measurement": "Log2 reporter intensity values", "setting": "[4]; 3 at 1 μM", "value": "0.1276 and 0.0114 and 0.09532"}, {"measurement": "Log2 reporter intensity values", "setting": "[4]; 3 at 4 μM", "value": "0.02376 and -0.03158 and 0.02709"}]}]}
